How the values were obtained:
Format in all cases: in vivo
[1] = test system: Human gastric cancer cell line NCI-N87; assay: Antitumor study (1): NCI-N87 subcutaneous xenograft; conditions: Day 63; NCI-N87 s.c. in female SCID mice; Compound A feed mix 0.3% Day 6 to Day 34; HER2-ADC (1) 2 mg/kg i.v. Day 10
Method: (§1) Measurement and calculation formula: In all studies, the major axis and minor axis of tumors were measured once a week or twice a week with an electronic digital caliper, and the estimated tumor volume (mm^3) was calculated. The calculation formula is as shown below.
(§2) Tumor growth inhibition (TGI) was calculated in accordance with the following calculation formula.
(§3) [formula] • T: Average estimated tumor volume of mice of test substance administration group • C: Average estimated tumor volume of mice of control group
(§4) The HER2-ADC (1) was diluted with ABS buffer (10 mM acetate buffer [pH 5.5], 5% sorbitol), and intravenously administered in a fluid volume of 10 mL/kg to the tail vein. The Compound A was orally administered by a feed mix containing 0.3% of Compound A.
(§5) These methods are common to Examples 5 to 8, and Examples 11 to 16. In Example 12 to Example 16, TROP2-ADC (1), HER3-ADC (1), CD37-ADC (1), or B7-H3-ADC (1) was used in the evaluation. Moreover, the Compound A was orally administered by a feed mix containing 0.25% of Compound A in Example 12 to Example 16.
Human gastric cancer cell line NCI-N87, which was purchased from ATCC (American Type Culture Collection), was suspended into DPBS (Dulbecco's phosphate-buffered saline) and subcutaneously transplanted at 1×10^7 cells into the right side of each female SCID (Severe Combined Immunodeficient) mouse (CLEA Japan, Inc.) (Day 0). […]

[2] = test system: Human breast cancer cell line JIMT-1; assay: Antitumor study (2): JIMT-1 subcutaneous xenograft, HER2-ADC (1); conditions: Day 52; JIMT-1 s.c. in female SCID mice; Compound A feed mix 0.3% Day 14 to Day 42; HER2-ADC (1) 10 mg/kg i.v. Day 18
Method: as §1, §2, §3, §4, §5
Human breast cancer cell line JIMT-1, which was purchased from DSMZ (Deutsche Sammlung von Mikroorganismen und Zellkulturen GmbH), was suspended into DPBS and subcutaneously transplanted at 5×10^6 cells into the right side of each female SCID mouse (CLEA Japan, Inc.) (Day 0). […]

[3] = test system: Human breast cancer cell line MDA-MB-453; assay: Antitumor study (3): MDA-MB-453 subcutaneous xenograft; conditions: Day 74; MDA-MB-453 s.c. in female SCID mice; Compound A feed mix 0.3% Day 18 to Day 46; HER2-ADC (1) 1 mg/kg i.v. Day 22
Method: as §1, §2, §3, §4, §5
Human breast cancer cell line MDA-MB-453, which was purchased from ATCC, was suspended into 50% Matrigel matrix and subcutaneously transplanted at 1×10^7 cells into the right side of each female SCID mouse (CLEA Japan, Inc.) (Day 0). Eighteen days later, the mice were divided into groups based on estimated tumor volumes. […]

[4] = test system: Human breast cancer cell line MX-1; assay: Antitumor study (4): MX-1 subcutaneous xenograft; conditions: Day 51; MX-1 s.c. in female SCID mice; Compound A feed mix 0.3% Day 13 to Day 41; HER2-ADC (1) 3 mg/kg i.v. Day 17
Method: as §1, §2, §3, §4, §5
Human breast cancer cell line MX-1, which was purchased from CLS (Cell Lines Service), was suspended into 50% Matrigel matrix and subcutaneously transplanted at 5×10^6 cells into the right side of each female SCID mouse (CLEA Japan, Inc.) (Day 0). […]

[5] = test system: Human breast cancer cell line ZR-75-1; assay: Antitumor study (5): ZR-75-1 subcutaneous xenograft; conditions: Day 49; ZR-75-1 s.c. in female NSG mice (estradiol cypionate weekly); Compound A feed mix 0.3% Day 14 to Day 42; HER2-ADC (1) 5 mg/kg i.v. Day 14
Method: as §1, §2, §3, §4
These methods are common to Examples 5 to 8, and Examples 11 to 16. In Example 12 to Example 16, TROP2-ADC (1), HER3-ADC (1), CD37-ADC (1), or B7-H3-ADC (1) was used in the evaluation. Moreover, the Compound A was orally administered by a feed mix containing 0.25% of Compound A in Example 12 to Example 16. […]

[6] = test system: Human non-small lung cancer cell line Calu-3; assay: Antitumor study (6): Calu-3 subcutaneous xenograft; conditions: Day 35; Calu-3 s.c. in female SCID mice; Compound A feed mix 0.3% Day 14 to Day 42; HER2-ADC (1) 1 mg/kg i.v. Day 14
Method: as §1, §2, §3, §4, §5
Human non-small lung cancer cell line Calu-3, which was purchased from ATCC (American Type Culture Collection), was suspended into Matrigel matrix and subcutaneously transplanted at 3×10^6 cells into the right side of each female SCID mouse (The Jackson Laboratory Japan, Inc.) (Day 0). […]

[7] = test system: Human non-small lung cancer cell line NCI-H358; assay: Antitumor study (7): NCI-H358 subcutaneous xenograft; conditions: Day 115; NCI-H358 s.c. in female SCID mice; Compound A feed mix 0.25% Day 24 to Day 66; TROP2-ADC (1) 10 mg/kg i.v. Day 24 and Day 45
Method: as §1, §2, §3, §4, §5
Human non-small lung cancer cell line NCI-H358, which was purchased from ATCC (American Type Culture Collection), was suspended into 50% Matrigel matrix and subcutaneously transplanted at 3×10^6 cells into the right side of each female SCID mouse (CLEA Japan, Inc.) (Day 0). […]

[8] = test system: Human breast cancer cell line JIMT-1; assay: Antitumor study (8): JIMT-1 subcutaneous xenograft, HER3-ADC (1); conditions: Day 46; JIMT-1 s.c. in female SCID mice; Compound A feed mix 0.25% Day 11 to Day 39; HER3-ADC (1) 10 mg/kg i.v. Day 11
Method: as §1, §2, §3, §4, §5
Human breast cancer cell line JIMT-1, which was purchased from DSMZ (Deutsche Sammlung von Mikroorganismen und Zellkulturen GmbH), was suspended into saline and subcutaneously transplanted at 5×10^6 cells into the right side of each female SCID mouse (CLEA Japan, Inc.) (Day 0). […]

[9] = test system: Human diffuse large B-cell lymphoma cell line WSU-DLCL2; assay: Antitumor study (9): WSU-DLCL2 subcutaneous xenograft; conditions: Day 44; WSU-DLCL2 s.c. in female SCID mice; Compound A feed mix 0.25% Day 16 to Day 44; CD37-ADC (1) 1 mg/kg i.v. Day 16
Method: as §1, §2, §3, §4, §5
Human diffuse large B-cell lymphoma cell line WSU-DLCL2, which was purchased from DSMZ (Deutsche Sammlung von Mikroorganismen und Zellkulturen GmbH), was suspended into DPBS and subcutaneously transplanted at 1×10^7 cells into the right side of each female SCID mouse (CLEA Japan, Inc.) (Day 0). […]

[10] = test system: Human neuroendocrine prostate cancer cell line NCI-H660; assay: Antitumor study (10): NCI-H660 subcutaneous xenograft; conditions: Day 58; NCI-H660 s.c. in castrated male SCID mice; Compound A feed mix 0.25% Day 29 to Day 58; B7-H3-ADC (1) 0.3 mg/kg i.v. Day 29 and Day 43
Method: as §1, §2, §3, §4, §5
Human neuroendocrine prostate cancer cell line NCI-H660, which was purchased from ATCC (American Type Culture Collection), was suspended into 50% Matrigel matrix and subcutaneously transplanted at 2×10^6 cells into the right side of each castrated male SCID mouse (CLEA Japan, Inc.) (Day 0). […]

SMILES: Cc1cc(C)c(CNC(=O)c2cc(Cl)c3c(c2C)O[C@@](C)([C@H]2CC[C@H](N(C)C)CC2)O3)c(=O)[nH]1 [Compound A, (2R)-7-chloro-2-[trans-4-(dimethylamino)cyclohexyl]-N-[(4,6-dimethyl-2-oxo-1,2-dihydropyridin-3-yl)methyl]-2,4-dimethyl-1,3-benzodioxole-5-carboxamide p-toluene sulfonate]
- Tumor growth inhibition (TGI) [1]: 38%
- Tumor growth inhibition (TGI) [2]: 19%
- Tumor growth inhibition (TGI) [3]: 41%
- Tumor growth inhibition (TGI) [4]: 9%
- Tumor growth inhibition (TGI) [5]: 53%
- Tumor growth inhibition (TGI) [6]: 20%
- Tumor growth inhibition (TGI) [7]: 20%
- Tumor growth inhibition (TGI) [8]: 41%
- Tumor growth inhibition (TGI) [9]: 31%
- Tumor growth inhibition (TGI) [10]: 80%

— US20250276079A1, “COMBINATION OF ANTIBODY-DRUG CONJUGATE WITH EZH1 and/or EZH2 INHIBITOR” (DAIICHI SANKYO COMPANY, LIMITED, priority 2022, published 2025)
